In BindingDB's records for doi:10.1021/ml100146z (2010):

Molecular target: Signal transducer and activator of transcription 3 (Homo sapiens, UniProt P40763)
Assay: Inhibition of STAT3 in human HeLa cells after 24 hrs by luciferase reporter gene assay

Chain of Signal transducer and activator of transcription 3 (P40763 whole entry): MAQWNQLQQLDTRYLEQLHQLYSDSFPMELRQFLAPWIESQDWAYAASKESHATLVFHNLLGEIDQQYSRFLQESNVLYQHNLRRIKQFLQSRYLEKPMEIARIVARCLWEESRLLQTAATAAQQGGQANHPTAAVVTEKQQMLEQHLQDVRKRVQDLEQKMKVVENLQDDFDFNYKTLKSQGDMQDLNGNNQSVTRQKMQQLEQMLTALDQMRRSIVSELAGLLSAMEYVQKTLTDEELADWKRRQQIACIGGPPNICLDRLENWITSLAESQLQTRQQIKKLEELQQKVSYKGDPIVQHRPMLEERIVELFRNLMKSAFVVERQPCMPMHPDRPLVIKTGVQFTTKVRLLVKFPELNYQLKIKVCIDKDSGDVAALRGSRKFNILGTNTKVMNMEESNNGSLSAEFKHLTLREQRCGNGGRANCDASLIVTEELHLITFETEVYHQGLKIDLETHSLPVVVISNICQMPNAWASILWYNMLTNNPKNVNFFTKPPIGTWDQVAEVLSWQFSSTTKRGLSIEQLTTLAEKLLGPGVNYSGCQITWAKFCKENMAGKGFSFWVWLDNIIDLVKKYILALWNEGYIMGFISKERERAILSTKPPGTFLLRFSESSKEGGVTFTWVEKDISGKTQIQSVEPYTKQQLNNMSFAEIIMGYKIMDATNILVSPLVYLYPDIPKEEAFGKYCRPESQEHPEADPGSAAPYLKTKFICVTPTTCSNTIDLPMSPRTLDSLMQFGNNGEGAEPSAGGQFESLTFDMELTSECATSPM

IC50: 250 nM
Structure (SMILES): O=C(Nc1ccc([N+](=O)[O-])cc1Cl)c1cc(Cl)ccc1O [5-chloro-N-(2-chloro-4-nitrophenyl)-2-hydroxybenzamide]
